From patent US11850325B2, “Injectable, bioadhesive cryogel scaffolds for biomedical uses” (Northeastern University, priority 2019, dated 2023) come the findings set out here.

The conditions of the data set: mouse.

Method: All animal experiments were reviewed and approved by Institutional Animal Care and Use Committee (ICAUC; protocol 15-1248R) at Northeastern University (Boston, MA, USA). […] Anesthesia was achieved by isoflurane (2.5%) inhalation, followed by SC buprenorphine (0.02-0.05 mg/kg) administration. After inducing anesthesia, cryogels (4% total polymer concentration (w/v), 4×4×1 mm) were implanted via injection using a sterile 18-gauge needle.
The cryogels sterilized in 70% ethanol (v/v) for 20 minutes and under UV light. Cryogels were loaded into sterile syringes and sterile 18G needles. […] After 21 days post-implantation, animals were euthanized and the cryogels were retrieved along with the surrounding tissues for histological assessment, and placed in cold DPBS. Hydrogels used for biodegradation studies were thoroughly washed in distilled water, and excess tissue was carefully removed under a dissection microscope.
After explantation, samples were fixed in paraformaldehyde (4% v/v)) for 4 h, followed by overnight incubation in 30% sucrose (30% w/v) at 4° C. Samples were then embedded in OCT and flash frozen in liquid nitrogen. Frozen samples were sectioned using a Leica Biosystems CM3050 S Research Cryostat. 14-μm cryosections were obtained and mounted in positively charged slides using DPX mountant medium (Sigma). Slides were then processed for hematoxylin and eosin staining (Sigma) according to instructions from the manufacturer. Immunohistofluorescent staining was performed on mounted cryosections as previously reported.^15 Anti-CD3 [SP7] (ab16669), anti-CD206 (ab125212), anti-F480 were used as primary antibodies, and an Alexa Fluor 594-conjugated secondary antibody (Invitrogen) was used for detection. All sections were counterstained with DAPI (Invitrogen), and visualized on an AxioObserver Z1 inverted microscope.
In vivo injectability, bioadhesion, and immunohistology. Lastly, we characterized the in vivo biodegradation of HAGM and HPD cryogels, including their interactions with native tissues via subcutaneous implantation in a murine animal model. Sterile composite cryogels (HAGM and HPD, 4×4×1 mm) were suspended in 0.2 mL of PBS and were injected subcutaneously in the backs of C57BL/6J mice. After 21 days post-implantation, the mice were euthanized prior to cryogel retrieval, along with adjacent tissue. […] Explanted samples were then flash-frozen at an optimal cutting temperature (OCT) compound, cryosectioned into 14-μm slices, and mounted onto glass slides for histological examination.

Take hyaluronic acid methacrylate [HAGM]: under “in vivo”, the “H&E staining, cell migration into explanted cryogels” value is reported as “migration of predominantly non-inflammatory cells”; the “lymphocyte/leukocyte infiltration (CD3)” value is “no significant local lymphocyte infiltration”; the “macrophage infiltration (CD206 and F480)” value was “some macrophages”. Under “in vivo, sc”, the “tissue integration and immunocytotoxicity” value is reported as “high tissue integration with no immunocytoxicity”. Moreover, where the note is “sc”, the “in vivo biodegradation (visual inspection)” value is “no biodegradation”.
